Reference: PMC2892883 (Behavioural brain research, 2010)

Target: mGluR8b (Homo sapiens, UniProt O00222)
Assay: […]GTPγS binding, inhibition of the potentiation by AZ12216052
Assay type: cell-based

Sequence of mGluR8b (O00222 34-908 isoform O00222-2): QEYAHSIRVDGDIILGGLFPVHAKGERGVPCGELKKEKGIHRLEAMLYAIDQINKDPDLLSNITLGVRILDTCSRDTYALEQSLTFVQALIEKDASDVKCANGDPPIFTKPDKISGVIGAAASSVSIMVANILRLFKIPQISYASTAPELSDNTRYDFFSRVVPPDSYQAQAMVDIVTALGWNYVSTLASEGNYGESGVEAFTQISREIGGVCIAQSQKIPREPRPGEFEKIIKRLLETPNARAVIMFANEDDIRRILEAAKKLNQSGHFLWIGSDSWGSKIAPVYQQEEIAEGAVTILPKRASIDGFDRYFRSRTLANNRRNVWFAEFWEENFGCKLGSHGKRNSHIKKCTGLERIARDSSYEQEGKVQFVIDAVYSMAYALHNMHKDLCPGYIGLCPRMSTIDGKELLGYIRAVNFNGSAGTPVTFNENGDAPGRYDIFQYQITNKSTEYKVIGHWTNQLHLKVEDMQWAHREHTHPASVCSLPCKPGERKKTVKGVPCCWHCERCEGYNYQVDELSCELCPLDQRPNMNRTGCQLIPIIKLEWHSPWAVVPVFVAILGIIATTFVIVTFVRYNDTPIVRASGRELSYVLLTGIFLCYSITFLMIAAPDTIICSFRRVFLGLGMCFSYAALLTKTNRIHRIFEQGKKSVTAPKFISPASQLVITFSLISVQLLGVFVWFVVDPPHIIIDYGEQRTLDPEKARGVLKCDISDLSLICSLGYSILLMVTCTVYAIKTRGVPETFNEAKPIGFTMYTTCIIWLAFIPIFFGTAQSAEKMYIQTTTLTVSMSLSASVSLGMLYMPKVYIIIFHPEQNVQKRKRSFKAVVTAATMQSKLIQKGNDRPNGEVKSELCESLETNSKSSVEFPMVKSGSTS

NC(C(=O)O)(c1ccc(P(=O)(O)O)cc1)C1CC1 (racemic) [CPPG]
[35S]GTPγS binding, inhibition of the potentiation by AZ12216052: The potentiator effect of AZ12216052 on mGluR8 is inhibited by group-II/III antagonists LY341495 and CPPG
